Assay [1] relates to cultured chick heart cells. Nature of the assay: Effect of MSA on Tc-MIBI net accumulation (FIG. 3). As to conditions: TPB 10^-5 M, n=3. The class given is cell-based. The procedure:
FIG. 3. Effect of MSA on Tc-MIBI net accumulation. Preparations were incubated for the times indicated in Tc-MIBI loading buffer containing 5.4 mM KCl (.quadrature., .smallcircle.) or 5.4 mM K-MSA ( , ·; prepared by equimolar substitution of K-MSA KCl) in the absence (.quadrature., ) or presence (.smallcircle., ·) of TPB (10^-5 M). Each point represents the mean ±SEM of 3 determinations.
Control buffer was a modified Earle's balanced salt solution (MEBSS) with the following composition (mN) Na^30, 145; K^+, 5.4; Ca^2, 1.2; Mg^2+, 0.8; Cl, 152; H2 PO4, 0.8; SO4^2-, 0.8; dextrose, 5.6; HEPES, 4.0; and bovine calf serum, 1% (v/v); […]; 37° C. K-methanesulfonate was made by titration of methanesulfonic acid with KOH (Piwnica-Worms, D., et al., J. Gen. Physiol. 81:731-748 (1983)) and replaced […] in some solutions by equimolar substitution where indicated. Natetraphenylborate, CCCP, bumetanide and valinomycin were dissolved into DMSO prior to addition to buffer. DMSO alone has no significant affect on contractile activity, action potential configuration (Lieberman, M., et al., Dev. Biol. 31:380-403 (1973)) or Tc-MIBI uptake kinetics (Piwnica-Worms, D., et al., Circ. (in press)).
(§1) Monolayers of spontaneously contractile chick ventricular myocardial cells were obtained from disaggregated 10-day old chick embryo hearts by a slight modification of previously published methods (Horres, C. R., et al., In Pinson, A. (ed.), The Heart Cell in Culture, Boca Raton, CRC Press, pp. 77-108 (1987)). […] Cells were centrifuged at 400 g for 10 minutes, resuspended and combined in culture medium, counted with a hemocytometer and diluted to yield a suspension of 5×10^5 cells/ml. […]
Radioactive uptake methods have been described in detail (Piwnica-Worms, D., et al, Circ. (in press). Briefly, coverslips with confluent cells were removed from culture media and pre-equilibrated for 40-60 seconds in MEBSS buffer. Uptake and retention experiments were initiated by immersion of coverslips in 60 mm glass Pyrex dishes containing loading solution consisting of buffer with 0.1-0.6 nM [^99m Tc-MIBI] (0.01-0.4 Ci/nmole; 25-100 uCi/ml). Preparations were removed at various times and rinsed three times in 25 ml volumes of ice-cold (2° C.) isotope-free buffer for 8 seconds each to clear extracellular spaces. Preparations and aliquots of the loading buffer and stock solutions were counted in a well-type sodium iodide gamma counter after which cell protein on each coverslip was extracted in 1% sodium dodecylsulfate with 10 mM sodium borate and assayed by the method of Lowry (Lowry, O. H., et al., J. Biol. Chem. 193:265-275 (1951)). […]

For assay [2], the system named is cultured chick heart cells. Nature of the assay: Ko-dependence of Tc-MIBI net uptake in the absence and presence of TPB (FIG. 5). The assay is classed as cell-based. As to conditions: absence of TPB; more pronounced in presence of TPB. The procedure: FIG. 5. Ko -dependence of Tc-MIBI net uptake in the absence ( ) and presence (.quadrature.) of TPB (10^-5 M). Peak accumulation of Tc-MIBI was determined in preparations incubated in loading buffers containing the indicated Ko (equimolar replacement of NaCl by KCl) for 40 minutes (control) or for 20 minutes (+TPB). Ko -induced cell volume changes were prevented by addition of bumetanide (10^-5 M) to each buffer. Each point is the mean ±SEM of 3 determinations. Solid lines have no theoretical significance. The dashed line represents the Tc-MIBI content expected at each Ko assuming an intracellular/extracellular Tc-MIBI concentration ratio equal to the Ki /Ko ratio.
as §1, with “(1987)). Hearts were trimmed of connective tissue and atria, finely minced and serially exposed to 0.024% (w/v) trypsin in Ca^2+ - and Mg^2+ - free Earle's salt solution for 7 minutes at 37° C.” for “(1987)).”

Turning to `[C-]#[N+]CC(C)(C)OC.[C-]#[N+]CC(C)(C)OC.[C-]#[N+]CC(C)(C)OC.[C-]#[N+]CC(C)(C)OC.[C-]#[N+]CC(C)(C)OC.[C-]#[N+]CC(C)(C)OC.[Tc]` [Tc-MIBI, hexakis(methoxyisobutylisonitrile)technetium(I)], the Tc-MIBI uptake in assay [1] (130 mM K-MSA buffer, P=0.01) is given as 79.3±1.1 fmol Tc-MIBI/mg protein per nM; in assay [1] (130 mM KCl buffer + bumetanide 10^-5 M), 63.7±3.2 fmol Tc-MIBI/mg protein per nM. In addition, in assay [2], the “nominal intracellular/extracellular accumulation ratio vs Ki/Ko ratio” value is given as “greater than those expected from the Ki /Ko ratios in the absence of TPB”.
